In PMC5218480 (PLoS ONE, 2017):

Test system: MV-4-11 cells
Assay: Gene expression microarray analysis (Affymetrix PrimeView) and GSEA
Format: cell-based, human
Set-up: RFU PODN (11730768_x_at) / Fold change /veh PODN (11730768_x_at) / RFU LINC00158 (11744669_a_at) / Fold change /veh LINC00158 (11744669_a_at) / RFU DUSP10 (11751237_a_at) / Fold change /veh DUSP10 (11751237_a_at) / RFU ID3 (11757404_x_at) / Fold change /veh ID3 (11757404_x_at) / RFU PLEKHG5 (11737974_s_at) / Fold change /veh PLEKHG5 (11737974_s_at) / RFU LRRC4B (11730491_at) / Fold change /veh LRRC4B (11730491_at) / RFU GIMAP4 (11747438_a_at) / Fold change /veh GIMAP4 (11747438_a_at) / RFU KRT8 (11758183_x_at) / Fold change /veh KRT8 (11758183_x_at) / RFU CNN1 (11734310_a_at) / Fold change /veh CNN1 (11734310_a_at) / RFU VPS37D (11726825_at) / Fold change /veh VPS37D (11726825_at) / RFU C10orf10 (11716522_x_at) / Fold change /veh C10orf10 (11716522_x_at) / RFU KIR2DL2 /// KIR2DL4 /// KIR2DL5A /// KIR2DL5B /// KIR2DS1 /// KIR2DS2 /// KIR2DS3 /// KIR2DS4 /// KIR3DL3 /// KIR3DL3 /// KIR3DS1 (11738374_at) / Fold change /veh KIR2DL2 /// KIR2DL4 /// KIR2DL5A /// KIR2DL5B /// KIR2DS1 /// KIR2DS2 /// KIR2DS3 /// KIR2DS4 /// KIR3DL3 /// KIR3DL3 /// KIR3DS1 (11738374_at) / RFU C1QL1 (11718748_at) / Fold change /veh C1QL1 (11718748_at) / RFU TMPRSS4 (11747572_a_at) / Fold change /veh TMPRSS4 (11747572_a_at) / RFU HAMP (11756126_x_at) / Fold change /veh HAMP (11756126_x_at) / RFU RNFT2 (11725882_a_at) / Fold change /veh RNFT2 (11725882_a_at) / RFU NR4A2 (11747474_a_at) / Fold change /veh NR4A2 (11747474_a_at) / RFU ABCC12 (11746883_a_at) / Fold change /veh ABCC12 (11746883_a_at) / RFU TMEM136 (11760407_x_at) / Fold change /veh TMEM136 (11760407_x_at) / RFU CLDN22 /// WWC2 (11732394_at) / Fold change /veh CLDN22 /// WWC2 (11732394_at) / RFU HLA-DPB1 (11760878_x_at) / Fold change /veh HLA-DPB1 (11760878_x_at) / RFU SPINT1 (11716480_a_at) / Fold change /veh SPINT1 (11716480_a_at) / RFU GAP43 (11754022_s_at) / Fold change /veh GAP43 (11754022_s_at) / RFU A4GNT (11735810_at) / Fold change /veh A4GNT (11735810_at) / RFU PRB3 (11715151_x_at) / Fold change /veh PRB3 (11715151_x_at) / RFU TUBB4B (11761932_at) / Fold change /veh TUBB4B (11761932_at) / RFU CAPN14 (11732068_a_at) / Fold change /veh CAPN14 (11732068_a_at) / RFU TMCC2 (11721928_a_at) / Fold change /veh TMCC2 (11721928_a_at) / RFU IRGQ (11745062_a_at) / Fold change /veh IRGQ (11745062_a_at) / RFU FAM174B (11720279_a_at) / Fold change /veh FAM174B (11720279_a_at) / RFU TMPRSS4 (11748680_a_at) / Fold change /veh TMPRSS4 (11748680_a_at) / RFU FAM212B (11763350_a_at) / Fold change /veh FAM212B (11763350_a_at) / RFU PLEKHG5 (11743358_a_at) / Fold change /veh PLEKHG5 (11743358_a_at) / RFU ZSCAN30 (11745921_a_at) / Fold change /veh ZSCAN30 (11745921_a_at) / RFU CMKLR1 (11741424_a_at) / Fold change /veh CMKLR1 (11741424_a_at) / RFU LOC101060620 /// MAPK8IP1 (11723275_at) / Fold change /veh LOC101060620 /// MAPK8IP1 (11723275_at) / RFU SPTSSB (11747773_x_at) / Fold change /veh SPTSSB (11747773_x_at) / RFU PRSS12 (11739890_at) / Fold change /veh PRSS12 (11739890_at) / RFU BIN1 (11741810_x_at) / Fold change /veh BIN1 (11741810_x_at) / RFU WNT11 (11732464_a_at) / Fold change /veh WNT11 (11732464_a_at) / RFU C10orf10 (11716521_a_at) / Fold change /veh C10orf10 (11716521_a_at) / RFU C5orf56 (11738089_at) / Fold change /veh C5orf56 (11738089_at) / RFU CYB561 (11721691_x_at) / Fold change /veh CYB561 (11721691_x_at) / RFU ANKRD19P (11752326_a_at) / Fold change /veh ANKRD19P (11752326_a_at) / RFU OR2T12 /// OR2T33 /// OR2T8 (11738714_s_at) / Fold change /veh OR2T12 /// OR2T33 /// OR2T8 (11738714_s_at) / RFU VCAN (11748164_a_at) / Fold change /veh VCAN (11748164_a_at) / RFU JSRP1 (11732532_at) / Fold change /veh JSRP1 (11732532_at) / RFU KRTAP10-11 (11738290_x_at) / Fold change /veh KRTAP10-11 (11738290_x_at) / RFU MYO3A (11730013_a_at) / Fold change /veh MYO3A (11730013_a_at) / RFU EBF3 (11725865_a_at) / Fold change /veh EBF3 (11725865_a_at) / RFU CAMK2N1 (11719241_x_at) / Fold change /veh CAMK2N1 (11719241_x_at) / RFU C5orf56 (11738088_a_at) / Fold change /veh C5orf56 (11738088_a_at) / RFU OLFML3 (11715873_a_at) / Fold change /veh OLFML3 (11715873_a_at) / RFU LOC100653217 /// NTM (11731650_a_at) / Fold change /veh LOC100653217 /// NTM (11731650_a_at) / RFU MAPK11 (11762145_a_at) / Fold change /veh MAPK11 (11762145_a_at) / RFU FIZ1 (11724087_x_at) / Fold change /veh FIZ1 (11724087_x_at) / RFU OASL (11726364_x_at) / Fold change /veh OASL (11726364_x_at) / RFU SOX15 (11748057_x_at) / Fold change /veh SOX15 (11748057_x_at) / RFU CD79A (11719716_a_at) / Fold change /veh CD79A (11719716_a_at) / RFU HIST1H1D (11736915_at) / Fold change /veh HIST1H1D (11736915_at) / RFU CASKIN2 (11723855_a_at) / Fold change /veh CASKIN2 (11723855_a_at) / RFU LOC730098 (11760151_x_at) / Fold change /veh LOC730098 (11760151_x_at) / RFU OR4N2 (11742367_at) / Fold change /veh OR4N2 (11742367_at) / RFU PRRT2 (11749266_a_at) / Fold change /veh PRRT2 (11749266_a_at) / RFU SNX32 (11753110_a_at) / Fold change /veh SNX32 (11753110_a_at) / RFU CDHR5 (11726645_a_at) / Fold change /veh CDHR5 (11726645_a_at) / RFU RCAN1 (11760418_a_at) / Fold change /veh RCAN1 (11760418_a_at) / RFU FAM167A (11723789_a_at) / Fold change /veh FAM167A (11723789_a_at) / RFU FAM26E (11764081_at) / Fold change /veh FAM26E (11764081_at) / RFU ISYNA1 (11749810_s_at) / Fold change /veh ISYNA1 (11749810_s_at) / RFU ACY1 (11761880_at) / Fold change /veh ACY1 (11761880_at) / RFU 11764098_at / Fold change /veh 11764098_at / RFU SAMD14 (11745864_x_at) / Fold change /veh SAMD14 (11745864_x_at) / RFU NPB (11741838_a_at) / Fold change /veh NPB (11741838_a_at) / RFU TMPRSS6 (11731388_a_at) / Fold change /veh TMPRSS6 (11731388_a_at) / RFU KRTAP10-2 (11738614_at) / Fold change /veh KRTAP10-2 (11738614_at) / RFU ARHGAP8 /// PRR5-ARHGAP8 (11727945_x_at) / Fold change /veh ARHGAP8 /// PRR5-ARHGAP8 (11727945_x_at) / RFU KRTAP5-7 /// NADSYN1 (11734609_at) / Fold change /veh KRTAP5-7 /// NADSYN1 (11734609_at) / RFU RASL12 (11751679_a_at) / Fold change /veh RASL12 (11751679_a_at) / RFU CDKN2B (11736163_a_at) / Fold change /veh CDKN2B (11736163_a_at) / RFU PRF1 (11729649_at) / Fold change /veh PRF1 (11729649_at) / RFU, ZNF638 /// ZNF638-IT1 / Fold change vs veh, ZNF638 /// ZNF638-IT1 / RFU, PANK3 / Fold change vs veh, PANK3 / RFU, SH3YL1 / Fold change vs veh, SH3YL1 / RFU, ZEB2 / Fold change vs veh, ZEB2 / RFU, NRIP1 / Fold change vs veh, NRIP1 / RFU, PTTG1IP / Fold change vs veh, PTTG1IP / RFU, CAPN2 / Fold change vs veh, CAPN2 / RFU, MED14 / Fold change vs veh, MED14 / RFU, SNORA58 / Fold change vs veh, SNORA58 / RFU, C1orf63 / Fold change vs veh, C1orf63 / RFU, LRRFIP1 / Fold change vs veh, LRRFIP1 / RFU, NDUFAF7 / Fold change vs veh, NDUFAF7 / RFU, SLC12A2 / Fold change vs veh, SLC12A2 / RFU, IBTK / Fold change vs veh, IBTK / RFU, ESF1 / Fold change vs veh, ESF1 / Fold change vs veh, TMEM50B / RFU, TAOK1 / Fold change vs veh, TAOK1 / RFU, ACBD3 / Fold change vs veh, ACBD3 / RFU, TMA16 / Fold change vs veh, TMA16 / RFU, RWDD3 / Fold change vs veh, RWDD3 / RFU, BCAT1 / Fold change vs veh, BCAT1 / RFU, EDEM3 / Fold change vs veh, EDEM3 / RFU, TMEM33 / Fold change vs veh, TMEM33 / RFU, WDR75 / Fold change vs veh, WDR75 / RFU, AHCTF1 / Fold change vs veh, AHCTF1 / RFU, TFRC / Fold change vs veh, TFRC / RFU, ZDHHC17 / Fold change vs veh, ZDHHC17 / RFU, NOM1 / Fold change vs veh, NOM1 / RFU, ARL8B / Fold change vs veh, ARL8B / RFU, ZBTB11 / Fold change vs veh, ZBTB11 / RFU, TAMM41 / Fold change vs veh, TAMM41 / RFU, KIAA1704 /// LOC100996395 / Fold change vs veh, KIAA1704 /// LOC100996395 / RFU, ING1 / Fold change vs veh, ING1 / RFU, TRMT61B / Fold change vs veh, TRMT61B / RFU, FUBP3 / Fold change vs veh, FUBP3 / RFU, TP53 / Fold change vs veh, TP53 / RFU, TNKS2 / Fold change vs veh, TNKS2 / RFU, ZFP14 / Fold change vs veh, ZFP14 / RFU, ACTR2 / Fold change vs veh, ACTR2 / RFU, PPP3R1 / Fold change vs veh, PPP3R1 / RFU, PIK3R1 / Fold change vs veh, PIK3R1 / RFU, HNRNPA1 / Fold change vs veh, HNRNPA1 / RFU, RNF170 / Fold change vs veh, RNF170 / RFU, ZNF28 / Fold change vs veh, ZNF28 / RFU, RNGTT / Fold change vs veh, RNGTT / RFU, OGT / Fold change vs veh, OGT / RFU, BRD1 / Fold change vs veh, BRD1 / RFU, MARS / Fold change vs veh, MARS / RFU, ZNF655 / Fold change vs veh, ZNF655 / RFU, FAHD1 / Fold change vs veh, FAHD1 / RFU, BDP1 / Fold change vs veh, BDP1 / RFU, LRRCC1 / Fold change vs veh, LRRCC1 / RFU, ARID1A / Fold change vs veh, ARID1A / RFU, ZNF146 / Fold change vs veh, ZNF146 / RFU, ZNF330 / Fold change vs veh, ZNF330 / RFU, GPN3 / Fold change vs veh, GPN3 / RFU, C9orf123 / Fold change vs veh, C9orf123 / RFU, N4BP2L2 / Fold change vs veh, N4BP2L2 / RFU, ARFIP1 / Fold change vs veh, ARFIP1 / RFU, FAM179B / Fold change vs veh, FAM179B / RFU, BCL10 / Fold change vs veh, BCL10 / RFU, UHRF1BP1L / Fold change vs veh, UHRF1BP1L / RFU, BET1 / Fold change vs veh, BET1 / RFU, CNOT2 / Fold change vs veh, CNOT2 / RFU, ZNF268 / Fold change vs veh, ZNF268 / Fold change vs veh, ZNF507 / RFU, DGCR2 / Fold change vs veh, DGCR2 / RFU, WDSUB1 / Fold change vs veh, WDSUB1 / Fold change vs veh, HSP90B1 /// MIR3652 / RFU, ADSS / Fold change vs veh, ADSS / RFU, GK / Fold change vs veh, GK / RFU, ZNF148 / Fold change vs veh, ZNF148 / RFU, TAF9 / Fold change vs veh, TAF9 / RFU, SLC1A5 / Fold change vs veh, SLC1A5 / RFU, SLMO2 / Fold change vs veh, SLMO2 / RFU, ABCC4 / Fold change vs veh, ABCC4 / RFU, LOC101060439 /// RAP1B / Fold change vs veh, LOC101060439 /// RAP1B / RFU, RFX7 / Fold change vs veh, RFX7 / RFU, GTPBP10 / Fold change vs veh, GTPBP10 / RFU, CNEP1R1 / Fold change vs veh, CNEP1R1 / RFU, BIVM-ERCC5 /// ERCC5 / Fold change vs veh, BIVM-ERCC5 /// ERCC5 / RFU, ILF3 / Fold change vs veh, ILF3 / RFU 11762660_at / Fold change /veh 11762660_at / RFU VCAN (11757783_s_at) / Fold change /veh VCAN (11757783_s_at) / RFU DDX43 (11728927_at) / Fold change /veh DDX43 (11728927_at) / RFU KRT8 (11758188_x_at) / Fold change /veh KRT8 (11758188_x_at) / RFU NKD1 (11759106_at) / Fold change /veh NKD1 (11759106_at) / RFU SRD5A1 (11742802_a_at) / Fold change /veh SRD5A1 (11742802_a_at) / RFU TPSAB1 /// TPSB2 (11721975_s_at) / Fold change /veh TPSAB1 /// TPSB2 (11721975_s_at) / RFU GSTM3 (11746129_a_at) / Fold change /veh GSTM3 (11746129_a_at) / RFU IL23R (11737362_x_at) / Fold change /veh IL23R (11737362_x_at) / RFU TMEM51 (11727254_a_at) / Fold change /veh TMEM51 (11727254_a_at) / RFU PIWIL2 (11732686_x_at) / Fold change /veh PIWIL2 (11732686_x_at) / RFU ORM1 (11744905_x_at) / Fold change /veh ORM1 (11744905_x_at) / RFU CCDC152 (11743942_at) / Fold change /veh CCDC152 (11743942_at) / RFU ECM1 (11717891_a_at) / Fold change /veh ECM1 (11717891_a_at) / RFU IL23R (11748794_a_at) / Fold change /veh IL23R (11748794_a_at) / RFU TNFAIP8L3 (11732012_x_at) / Fold change /veh TNFAIP8L3 (11732012_x_at) / RFU MBOAT4 (11741988_at) / Fold change /veh MBOAT4 (11741988_at) / RFU 11764193_at / Fold change /veh 11764193_at / RFU TMEM53 (11763286_at) / Fold change /veh TMEM53 (11763286_at) / RFU MAGEB2 (11727129_at) / Fold change /veh MAGEB2 (11727129_at) / RFU TMEM200A (11744735_a_at) / Fold change /veh TMEM200A (11744735_a_at) / RFU CCDC152 (11751479_a_at) / Fold change /veh CCDC152 (11751479_a_at) / RFU FAM211A (11726209_a_at) / Fold change /veh FAM211A (11726209_a_at) / RFU RGS16 (11746705_a_at) / Fold change /veh RGS16 (11746705_a_at) / RFU VCAN (11755009_s_at) / Fold change /veh VCAN (11755009_s_at) / RFU RHOB (11743442_s_at) / Fold change /veh RHOB (11743442_s_at) / RFU RGS16 (11720943_a_at) / Fold change /veh RGS16 (11720943_a_at) / RFU RGS16 (11720944_at) / Fold change /veh RGS16 (11720944_at) / RFU, VPS4B / Fold change vs veh, VPS4B / RFU, CREB1 / Fold change vs veh, CREB1 / RFU, DNAJC13 / Fold change vs veh, DNAJC13 / RFU, GNAQ / Fold change vs veh, GNAQ / RFU, CDK5R1 / Fold change vs veh, CDK5R1 / RFU, ZRANB3 / Fold change vs veh, ZRANB3 / RFU, CUL4A / Fold change vs veh, CUL4A / RFU, CCNY / Fold change vs veh, CCNY / RFU, UFL1 / Fold change vs veh, UFL1 / RFU, COG3 / Fold change vs veh, COG3 / RFU, DIAPH2 / Fold change vs veh, DIAPH2 / RFU, SKA2 / Fold change vs veh, SKA2 / RFU, AFF3 / Fold change vs veh, AFF3 / RFU, LMF1 / Fold change vs veh, LMF1 / RFU, IPO11 / Fold change vs veh, IPO11 / RFU, DFFB / Fold change vs veh, DFFB / RFU, FOXP1 / Fold change vs veh, FOXP1 / RFU, CARD8 / Fold change vs veh, CARD8 / RFU, STRN3 / Fold change vs veh, STRN3 / RFU, ADK / Fold change vs veh, ADK / RFU, RASSF2 / Fold change vs veh, RASSF2 / RFU, WIPF1 / Fold change vs veh, WIPF1 / RFU, LARP1B / Fold change vs veh, LARP1B / RFU, RASA1 / Fold change vs veh, RASA1 / RFU, RB1 / Fold change vs veh, RB1 / RFU, PPFIA1 / Fold change vs veh, PPFIA1 / RFU, MAT2A / Fold change vs veh, MAT2A / RFU, CCT5 / Fold change vs veh, CCT5 / RFU, WDR92 / Fold change vs veh, WDR92 / RFU, CUX1 / Fold change vs veh, CUX1 / RFU, TTC7A / Fold change vs veh, TTC7A / RFU, TMEM135 / Fold change vs veh, TMEM135 / RFU, DEPTOR / Fold change vs veh, DEPTOR / RFU, CPM / Fold change vs veh, CPM / RFU, DNAJB6 / Fold change vs veh, DNAJB6 / RFU, CACNA2D3 / Fold change vs veh, CACNA2D3 / RFU, DTX4 / Fold change vs veh, DTX4 / RFU, TFCP2 / Fold change vs veh, TFCP2 / RFU, GMCL1 /// GMCL1P1 / Fold change vs veh, GMCL1 /// GMCL1P1 / RFU, AEBP2 / Fold change vs veh, AEBP2 / RFU, SNHG1 /// SNORD22 /// SNORD25 /// SNORD26 /// SNORD27 /// SNORD28 /// SNORD29 /// SNORD31 / Fold change vs veh, SNHG1 /// SNORD22 /// SNORD25 /// SNORD26 /// SNORD27 /// SNORD28 /// SNORD29 /// SNORD31 / Fold change (Aza/veh), C12orf56 (ProbeSet 11735607_a_at) / Fold change (ACY-1035/veh), C12orf56 (ProbeSet 11735607_a_at) / Fold change (Aza/veh), FGFR1OP (ProbeSet 11751329_s_at) / Fold change (ACY-1035/veh), FGFR1OP (ProbeSet 11751329_s_at) / Fold change (Aza/veh), VPS36 (ProbeSet 11739960_a_at) / Fold change (ACY-1035/veh), VPS36 (ProbeSet 11739960_a_at) / RFU SYPL1 (11715823_x_at) / Fold change /veh SYPL1 (11715823_x_at) / RFU IGFBP7 (11715501_s_at) / Fold change /veh IGFBP7 (11715501_s_at) / RFU REEP3 (11722064_at) / Fold change /veh REEP3 (11722064_at) / RFU IGLL1 (11728026_x_at) / Fold change /veh IGLL1 (11728026_x_at): dose or concentration left out as unconfirmed
Details: MV-4-11 cells, 48 hours

SMILES: Nc1ncn([C@@H]2O[C@H](CO)[C@@H](O)[C@H]2O)c(=O)n1 [azacitidine]
- Fold change /veh CCDC152 (11743942_at): 1.57
